The values below come from PMC10257182, “Discovery of senolytics using machine learning” (Nature Communications, 2023).

Like-named read-outs stand apart in the source and are kept apart here.

The experiment has as its system non-senescent control IMR90 ER:RAS cells. The experiment is described as follows: Nuclei count (Hoechst, high content imaging) senolytic assay, OIS model, non-senescent control cells. Type of experiment: cell-based, human. The following applies: Homo sapiens. From the text:
To test for senolytic activity, we compared the effect of each compound on the total cell number (automated high content image-based analysis of total number of nuclei per well) in non-senescent and senescent IMR90 ER:RAS cultures treated with the top hits from the computational screen (Figs. 2e and 3a–d and Supplementary Fig. 4a–c). The drop in cell number compared to untreated controls is indicated by the nuclei count and reflects cell death[13],[15]. As positive control, we employed ouabain, a cardiac glycoside with well characterised senolytic activity.
We performed experimental validation of the compounds with z-score > 8 (Fig. 2e). […] We employed two cellular models of senescence: one of OIS and a second one of TIS. For the OIS case, we utilised IMR90 ER:RAS cells with 4-OHT at 100 nM. […] For the TIS model, we used A549 cells with etoposide at 100 μM. The exposure of the cells to etoposide lasted 48 h, after which period the cells were cultivated for a further three days with normal media.
IMR90 (CCL-186) human foetal lung fibroblasts and A549 (CCL-185) human lung adenocarcinoma cells were obtained from the American Type Culture Collection (ATCC, Manassas, VA). The cell lines were confirmed to be mycoplasma negative (Lonza MycoAlert, cat #LT07-118). IMR90 ER:RAS is a derivative of IMR90 cells expressing a switchable version of oncogenic H-Ras[84]. IMR90 ER:RAS and A549 cells were maintained in Dulbecco’s Modified Eagle Medium (DMEM, ThermoFisher) supplemented with foetal bovine serum (10%), L-glutamine (2 mM, ThermoFisher), and antibiotic-antimycotic solution (1%, ThermoFisher) and incubated under standard tissue culture conditions (37 °C and 5% CO2). For induction of the senescent phenotype, IMR90-ER:RAS cells were cultured in hydroxytamoxifen (4-OHT) (Sigma) added media at 100 nM final concentration. IMR90 were kept in culture for over 27 passages for replicative senescence. Cells were tested for mycoplasma on a regular basis.
Cells were seeded (50 μL per well) into 384-well plates (IMR90 ER:RAS cells in Nunc Optical Bottom Polybase Microplates [#142761, Thermo Scientific, Rochester, NY] and A549 cells in CELLSTAR Cell Culture Microplates [#781091, Greiner Bio-One, Kremsmünster, Austria]). Cells were incubated under standard tissue culture conditions for 24 h before the addition of compounds. Passage 14 IMR90 ER:RAS cells were seeded at 1300 cells per well in the control condition, and at 1600 cells per well in the senescent case. Passage 34 A549 cells were seeded at 7000 cells per well in the control condition, and at 10,000 cells per well in the senescent case.
Dose response plates were prepared with a DMSO control and a 10-point […] concentration range, and added to the compounds using a D300e digital dispenser (Tecan Trading AG, Switzerland) at a final concentration of between 10 μM and 10 nM. Every screened condition was carried out in triplicate. After 72 h of incubation with exposure to the compounds, cells were fixed by the addition of an equal volume of formaldehyde (8%, 50 μL; #BP531-500, Fisher Bioreagents, Fisher Scientific, Loughborough, Leicestershire) to the existing media, incubated at room temperature (30 min), and washed three times in phosphate-buffered saline (PBS). Cells were then permeabilised in Triton-X100 (0.1%, 50 μL) and incubated at room temperature (30 min) followed by three more washes with PBS.
Cells were stained with Hoechst 33342 for nuclei count (excitation/emission wavelength at 387/447 […], DAPI channel, original concentration at 10 mg/ml, final concentration at 2 μg/ml; H1399, Molecular Probes, Eugene, OR). The staining solution was prepared in bovine serum albumin solution (10%). The staining solution was added to each well (30 μL) and incubated in the dark at room temperature (30 min), followed by three washes with PBS and no final aspiration. Plates were foil sealed.

Regarding `C[C@@H]1O[C@@H](O[C@H]2C[C@@H](O)[C@]3(CO)[C@H]4[C@H](O)C[C@]5(C)[C@@H](C6=CC(=O)OC6)CC[C@]5(O)[C@@H]4CC[C@]3(O)C2)[C@H](O)[C@H](O)[C@H]1O` [Ouabain, ouabain, reference compound], the viability at 10 µM reads like this: (IMR-90, 72 h, Control, log (dose) [M] -5, 72 h, mean n=3 (Fig 3C), read-out: Mean % Cell Survival) 15.9%; (IMR-90, control cells, log (dose) [M] -5, read-out: % Cell Survival) 10.9%. The viability at 4.677 µM by setting is: (IMR-90, 72 h, Control, log (dose) [M] -5.33, 72 h, mean n=3 (Fig 3C), read-out: Mean % Cell Survival) 22.3%; (IMR-90, control cells, log (dose) [M] -5.33, read-out: % Cell Survival) 23.1%. The viability at 2.188 µM runs as follows: (IMR-90, 72 h, Control, log (dose) [M] -5.66, 72 h, mean n=3 (Fig 3C), read-out: Mean % Cell Survival) 23.9%; (IMR-90, control cells, log (dose) [M] -5.66, read-out: % Cell Survival) 27%. In addition, the viability at 1 µM runs as follows: (IMR-90, 72 h, Control, log (dose) [M] -6, 72 h, mean n=3 (Fig 3C), read-out: Mean % Cell Survival) 27%; (IMR-90, control cells, log (dose) [M] -6, read-out: % Cell Survival) 27.3%. Besides, the viability at 0.4677 µM (IMR-90, 72 h, Control, log (dose) [M] -6.33, 72 h, mean n=3 (Fig 3C), read-out: Mean % Cell Survival) stood at 29.6% and the viability at 0.4677 µM (IMR-90, control cells, log (dose) [M] -6.33, read-out: % Cell Survival) was 29.4%. Also, the viability at 0.2188 µM (IMR-90, 72 h, Control, log (dose) [M] -6.66, 72 h, mean n=3 (Fig 3C), read-out: Mean % Cell Survival) amounted to 46.7% and the viability at 0.2188 µM (IMR-90, control cells, log (dose) [M] -6.66, read-out: % Cell Survival) worked out at 46%. The viability at 0.1 µM (IMR-90, 72 h, Control, log (dose) [M] -7, 72 h, mean n=3 (Fig 3C), read-out: Mean % Cell Survival) worked out at 60.8% and the viability at 0.1 µM (IMR-90, control cells, log (dose) [M] -7, read-out: % Cell Survival) is 62.2%. Also, the viability at 0.04677 µM (IMR-90, 72 h, Control, log (dose) [M] -7.33, 72 h, mean n=3 (Fig 3C), read-out: Mean % Cell Survival) was found to be 78.1% and the viability at 0.04677 µM (IMR-90, control cells, log (dose) [M] -7.33, read-out: % Cell Survival) stood at 81.7%. In addition, the viability at 0.02188 µM worked out at 87.3% (IMR-90, 72 h, Control, log (dose) [M] -7.66, 72 h, mean n=3 (Fig 3C), read-out: Mean % Cell Survival) and 81.6% (IMR-90, control cells, log (dose) [M] -7.66, read-out: % Cell Survival). The viability at 0.01 µM by setting is: (IMR-90, 72 h, Control, log (dose) [M] -8, 72 h, mean n=3 (Fig 3C), read-out: Mean % Cell Survival) 88.3%; (IMR-90, control cells, log (dose) [M] -8, read-out: % Cell Survival) 86%. In addition, for the setting “IMR-90, Control, 46.4 nM, normalised to DMSO, individual experiments (Fig 3B), read-out: % Cell Survival”, the viability at 0.0464 µM turned out to be 78.1%. Half-maximal inhibition (IMR-90, OIS model, non-senescent IMR90 ER:RAS, nuclei count, 72 h) (IC50) required 0.231 µM.
